Source: US4680290A, “Steroids for the treatment of hypercholesterolemia” (Hoffmann-La Roche Inc., priority 1983, dated 1987)

Tests used:
[1] = system: intestinal resorption of cholesterol; test: inhibition of the intestinal resorption of cholesterol in squirrel monkeys (CHORES); type: in vivo; details: 100 μmol/kg p.o., [26-^14 C]-cholesterol in feed, faeces collected 2.5 days, % of control values determined prior to medication
Description: Squirrel monkeys are orally administered the substances to be investigated together with a feed containing a protein, starch, triolein and [26-^14 C]-cholesterol. Thereupon, the faeces is collected for 2.5 days. The difference between the administered and the excreted radioactive cholesterol determined in the faeces is taken as the measurement of resorbed cholesterol. The cholesterol resorption (CHORES) is expressed in percentages of the control values determined prior to the medication.
(§1) The results which have been obtained with some representative products in accordance with the invention are reproduced in the Table hereinafter. There are given for each of the compounds indicated therein the dosage administered (in μmol/kg p.o.) as well as in each case the cholesterol resorption (CHORES) determined in percentages of the cholesterol resorption in the pre-period. Moreover, the Table contains data concerning the acute toxicity of the compounds investigated (LD50 in mg/kg in the case of single oral administration to mice).

[2] = acute toxicity, single oral administration to mice; details: mouse, in vivo; single oral administration (p.o.) to mice
Description: as §1

Row | SMILES | CHORES in % of the pre-period (cholesterol resorption) [1] [%] | LD50 [2] [mg/kg]
1 | CC(C)CCC[C@@H](C)[C@H]1CC[C@H]2[C@@H]3CC[C@H]4C[C@@H](OP(=O)([O-])OCC[N+](C)(C)C)CC[C@]4(C)[C@H]3CC[C@]12C [3β-Cholestanyloxy-phosphorylcholine] | 26 | 5000
2 | CC[C@H](CC[C@@H](C)[C@H]1CC[C@H]2[C@@H]3CC[C@H]4C[C@@H](OP(=O)([O-])OCC[N+](C)(C)C)CC[C@]4(C)[C@H]3CC[C@]12C)C(C)C [3β-Stigmastanyloxy-phosphorylcholine, 3β-stigmastanyloxy-phosphorylcholine] | 36 | 4000
3 | CC[C@H](/C=C/[C@@H](C)[C@H]1CC[C@H]2[C@@H]3CC=C4C[C@@H](OP(=O)([O-])OCC[N+](C)(C)C)CC[C@]4(C)[C@H]3CC[C@]12C)C(C)C [Stigmasta-5,22-dien-3β-yloxy-phosphorylcholine] | 33 | 5000
4 | CC[C@H](CC[C@@H](C)[C@H]1CC[C@H]2[C@@H]3CC=C4C[C@@H](OP(=O)([O-])OCC[N+](C)(C)C)CC[C@]4(C)[C@H]3CC[C@]12C)C(C)C [Stigmast-5-en-3β-yloxy-phosphorylcholine] | 52 | 5000
